Measurements reported in US20100204158A1, “COMBINATION OF SPLENOPENTIN AND THYMOPENTIN AND THE USE THEREOF IN MEDICINE” (priority 2007, published 2010).
Residues, ends and D or L forms follow the SMILES beside them. No end group written: not given here.

Experiments:
HIV-1IIIB = assay: HIV-1 antiviral assay in CEM-SS cells (MTS readout); assay type: cell-based
HCMV strain AD169 = assay: HCMV plaque formation assay in MRC-5 cells; details: for inhibition of HCMV plaque formation as compared to the virus control experiment: 10 micrograms per ml, 7-10 days
[1] = system: hepatitis B virus (HBV) ayw strain; assay: HBV experimental assay system (HepG2-2.2.15, TaqMan PCR of secreted HBV DNA); assay type: cell-based; details: 10 micrograms per ml; HepG2-2.2.15, six days, HBV DNA by TaqMan PCR
Source text: HepG2-2.2.15 is a stable cell line containing the hepatitis B virus (HBV) ayw strain genome (ATCC Cat. No. CRL-11997). Antiviral compounds blocking any late step of viral replication such as transcription, translation, pregenome encapsidation, reverse transcription, particle assembly and release can be identified and characterized using this cell line. In this assay, an active compound will reduce the production of secreted HBV from cells, measured by utilizing real time quantitative PCR (TaqMan) assay to directly and accurately measure HBV DNA copies.
HepG2-2.2.15 cells were plated in 96-well microtiter plates. After 16-24 hours the confluent monolayer of HepG2-2.2.15 cells was washed and the medium was replaced with complete medium containing test peptides—10 micrograms per ml—in duplicate. […] Six days following the initial administration of the peptides, the cell culture supernatants was collected, treated with pronase and DNAse and then used in a real-time quantitative TaqMan PCR assay. The PCR-amplified HBV DNA was detected in real-time by monitoring increases in fluorescence signals that result from the exonucleolytic degradation of a quenched fluorescence probe molecule that hybridizes to the amplified HBV DNA. […] Antiviral activity was calculated from the reduction in HBV DNA levels (% virus control). […]

murine spleen cells = assay: Th1/Th2 cytokine profiling assay (Ovalbumin-restimulated spleen cells, CBA kit); assay type: cell-based, Balb/c mice; details: 10 micrograms per ml, Ovalbumin restimulation, 72 hours
[2] = system: Primary Human endothelial cells (HUVEC); assay: Endothelial cell migration assay; assay type: cell-based; details: 10 micrograms per ml, 22 hours
HUVEC = assay: Endothelial tube formation assay; assay type: cell-based, human; details: 10 micrograms per ml, 20 hours
Source text: Positive control was vehicle only.

In the case of `Cc1cn([C@H]2C[C@H](N=[N+]=[N-])[C@@H](CO)O2)c(=O)[nH]c1=O` [AZT], the “antiviral activity of positive control compounds (HIV-1)” value (HIV-1IIIB) is reported as “expected levels of antiviral activity”.
In the case of `Nc1nc(O)c2ncn(COC(CO)CO)c2n1` [Ganciclovir, reference compound], the “antiviral activity of positive control compound (HCMV)” value (HCMV strain AD169; positive control, HCMV AD169) is reported as “expected levels of antiviral activity”.
With `CC(C)[C@H](NC(=O)[C@H](CC(=O)O)NC(=O)[C@H](CCCCN)NC(=O)[C@@H](N)CCCN=C(N)N)C(=O)N[C@@H](Cc1ccc(O)cc1)C(=O)O` [Peptide 2, Arg-Lys-Asp-Val-Tyr-OH] (H-RKDVY-OH) the “inhibition of HBV replication as compared to the virus control infection” value [1] was 6.2%, the “change of the production of TNF-alpha (in words)” value (murine spleen cells) was “did not significantly change” and the “decrease of the production of IFN-gamma” value (murine spleen cells) was 38.0%. The “decrease of the production of IL-5” value (murine spleen cells) was 28.2%, the “induction of the production of IL-2” value (murine spleen cells) was 22.2% and the “induction of the production of IL-4” value (murine spleen cells) was 70.6%. For the same molecule, the “inhibition of the migration of human endothelial cells” value [2] was 7%, the “inhibition of the tube formation of human endothelial cells” value (HUVEC) was 31% and the “inhibition of HCMV plaque formation as compared to the virus control experiment” value (HCMV strain AD169) was 1.4%.
With `CC(C)(C)NC(=O)[C@@H]1CN(Cc2cccnc2)CCN1C[C@@H](O)C[C@@H](Cc1ccccc1)C(=O)N[C@H]1c2ccccc2C[C@H]1O` [indinavir] the “antiviral activity of positive control compounds (HIV-1)” value (HIV-1IIIB) was “expected levels of antiviral activity”.
In the case of “Arg-Lys-Glu-Val-Tyr-OH (RKEVY-OH) [Peptide 1]”, the “inhibition of HBV replication as compared to the virus control infection” value [1] is reported as 19.5%, the “change of the production of IL-5 (in words)” value (murine spleen cells) is reported as “did not significantly change” and the “change of the production of TNF-alpha (in words)” value (murine spleen cells) is reported as “did not significantly change”. For the same molecule, the “induction of the production of IFN-γ” value (murine spleen cells) was 38.9%, the “induction of the production of IL-2” value (murine spleen cells) was 68.5% and the “induction of the production of IL-4” value (murine spleen cells) was 68.1%. For the same molecule, the “inhibition of the migration of human endothelial cells” value [2] was “did not inhibit”, the “inhibition of the tube formation of human endothelial cells” value (HUVEC) was 22% and the “inhibition of HCMV plaque formation as compared to the virus control experiment” value (HCMV strain AD169) was “no effect”.
